Measured values as given in ChEMBL document CHEMBL4715775, “Synthesis and structure-activity relationships of 1-benzylindane derivatives as selective agonists for estrogen receptor beta” (Bioorg Med Chem, 2016).

Experiments:
Estrogen receptor beta = Estrogen receptor beta (Homo sapiens, UniProt Q92731)
Description: Agonist activity at human ERbeta receptor expressed in HEK293T cells transfected with pGL4.27-(ERE)3-Luc assessed as transcriptional activation measured after 16 hrs by Dual-Glo luciferase assay

Estrogen receptor [1] = biological target: T1, Estrogen receptor (Homo sapiens, UniProt P03372)
T1 sequence (P03372 whole entry): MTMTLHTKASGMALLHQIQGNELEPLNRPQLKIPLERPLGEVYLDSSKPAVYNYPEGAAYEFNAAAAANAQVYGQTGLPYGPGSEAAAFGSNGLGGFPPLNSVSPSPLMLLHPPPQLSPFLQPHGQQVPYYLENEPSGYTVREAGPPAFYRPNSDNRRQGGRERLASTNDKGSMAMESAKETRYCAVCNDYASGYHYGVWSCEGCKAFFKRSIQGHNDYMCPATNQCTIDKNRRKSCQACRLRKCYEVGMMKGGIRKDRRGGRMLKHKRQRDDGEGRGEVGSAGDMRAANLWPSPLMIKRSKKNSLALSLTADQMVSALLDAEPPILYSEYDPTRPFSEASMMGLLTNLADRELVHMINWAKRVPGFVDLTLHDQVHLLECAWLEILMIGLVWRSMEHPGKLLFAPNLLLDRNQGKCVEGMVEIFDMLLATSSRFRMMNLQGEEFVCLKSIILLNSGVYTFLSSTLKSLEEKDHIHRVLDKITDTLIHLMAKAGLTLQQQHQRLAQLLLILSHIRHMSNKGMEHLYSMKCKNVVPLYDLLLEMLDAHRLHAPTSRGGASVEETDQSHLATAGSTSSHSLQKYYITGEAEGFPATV
Description: Agonist activity at human ERalpha receptor expressed in HEK293T cells transfected with pGL4.27-(ERE)3-Luc assessed as transcriptional activation measured after 16 hrs by Dual-Glo luciferase assay

Estrogen receptor [2] = biological target: T1, Estrogen receptor; assay: Agonist activity at human ERalpha receptor expressed in HEK293T cells transfected with pGL4.27-(ERE)3-Luc assessed as transcriptional activation at 10 uM measured after 16 hrs by Dual-Glo luciferase assay relative to 17beta-estradiol; type: cell-based

Estrogen receptor beta, sequence (Q92731 whole entry): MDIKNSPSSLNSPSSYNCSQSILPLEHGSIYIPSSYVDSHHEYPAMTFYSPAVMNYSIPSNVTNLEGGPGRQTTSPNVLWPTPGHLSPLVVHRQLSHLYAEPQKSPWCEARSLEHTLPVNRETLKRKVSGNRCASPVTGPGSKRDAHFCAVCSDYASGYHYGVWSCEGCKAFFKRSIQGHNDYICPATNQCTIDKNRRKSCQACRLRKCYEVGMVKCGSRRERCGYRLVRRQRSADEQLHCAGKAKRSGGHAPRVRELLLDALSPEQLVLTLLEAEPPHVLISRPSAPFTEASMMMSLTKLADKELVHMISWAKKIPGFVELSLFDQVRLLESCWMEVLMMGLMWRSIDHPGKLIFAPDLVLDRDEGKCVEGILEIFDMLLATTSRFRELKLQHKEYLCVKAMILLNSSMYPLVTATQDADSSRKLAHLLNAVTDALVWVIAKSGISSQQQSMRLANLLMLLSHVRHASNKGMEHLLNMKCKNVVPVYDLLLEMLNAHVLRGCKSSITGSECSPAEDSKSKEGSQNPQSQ

Row | SMILES | EC50 (Estrogen receptor beta) [nM] | EC50 (Estrogen receptor [1]) [nM] | Activity (Estrogen receptor [2]) [%]
1 | N#CC1(Cc2ccc(O)cc2Cl)CCc2cc(O)ccc21 (centres undefined) | 0.05 | – | –
2 | CCCCC1(Cc2ccc(O)cc2)CCc2cc(O)ccc21 (centres undefined) | 6.59 | – | 42
3 | N#CC1(Cc2ccc(O)cc2F)CCc2cc(O)ccc21 (centres undefined) | 0.15 | 256 | –
4 | N#C[C@@]1(Cc2ccc(O)cc2)CCc2cc(O)ccc21 | – | 2410 | –
5 | N#CC1(Cc2ccc(O)c(F)c2)CCc2cc(O)ccc21 (centres undefined) | 0.91 | 1820 | –
6 | CC1(Cc2ccc(O)cc2)CCc2cc(O)ccc21 (centres undefined) | – | 481 | –
7 | Oc1ccc(CC2CCCCc3cc(O)ccc32)cc1 (centres undefined) | 0.15 | 123 | –
8 | Cc1cc(CC2(C#N)CCc3cc(O)ccc32)ccc1O (centres undefined) | 10.7 | – | 2
9 | Oc1ccc(CC2CCc3ccc(O)cc32)cc1 (centres undefined) | 25.9 | 2110 | –
10 | N#CC1(Cc2ccc(O)c(Cl)c2)CCc2cc(O)ccc21 (centres undefined) | 11.6 | – | 7

Further lines, results first:

Row | EC50 (Estrogen receptor beta) [nM] | EC50 (Estrogen receptor [1]) [nM] | Activity (Estrogen receptor [2]) [%] | SMILES
11 | 0.1 | – | – | CCC(c1ccc(O)cc1)C1CCc2cc(O)ccc21 (centres undefined)
12 | 32.5 | 3090 | – | Oc1cccc(CC2CCc3cc(O)ccc32)c1 (centres undefined)
13 | 0.48 | 950 | – | Cc1cc(O)ccc1CC1(C#N)CCc2cc(O)ccc21 (centres undefined)
14 | 0.18 | 102 | – | Oc1ccc(CC2CCCc3cc(O)ccc32)cc1 (centres undefined)
15 | 0.36 | 116 | – | CCC1(Cc2ccc(O)cc2)CCc2cc(O)ccc21 (centres undefined)
16 | 3.05 | – | – | N#CCC1(Cc2ccc(O)cc2)CCc2cc(O)ccc21 (centres undefined)
17 | – | 169 | – | CCCC1(Cc2ccc(O)cc2)CCc2cc(O)ccc21 (centres undefined)
18 | 72.4 | – | – | Oc1ccc(CC2CCc3c(O)cccc32)cc1 (centres undefined)
19 | – | 3020 | – | N#C[C@]1(Cc2ccc(O)cc2)CCc2cc(O)ccc21
20 | – | – | 47 | Oc1ccc(CCc2ccc(O)cc2)cc1
21 | – | 2790 | – | N#CC1(Cc2ccc(O)cc2)CCc2cc(O)ccc21 (racemic)
22 | 0.23 | 185 | – | CCC(Cc1ccc(O)cc1)c1ccc(O)cc1 (centres undefined) [ISOBUTESROL]
